Data from patent publication US20230276831A1, “Food/Beverage Article” (Kikkoman Corporation, priority 2020, published 2023).

Legend:
[1] = system: Lactobacillus rennini (DSM 20253); assay: Antimicrobial action of licoricidin in soy sauce at various pH (Test Example 5); assay type: cell-based; set-up: key: A: The bacterial count decreases to less than 10% of the bacterial count of the control group.; B: The bacterial count decreases to 10% or more and less than 50% of the bacterial count of the control group.; C: The bacterial count decreases to 50% or more and less than 100% of the bacterial count of control group.; D: The bacterial count is the same as the bacterial count of the control group; details: salt 4% (w/v)
Description: Commercially available whole soybean soy sauce (produced by Kikkoman Corporation) was electrodialyzed and then concentrated under reduced pressure to obtain soy sauce at a salt concentration of 0% (w/v) and an alcohol concentration of 0% (v/v). Then, salt and/or alcohol was added to the above-mentioned obtained soy sauce, and hydrochloric acid or an aqueous sodium hydroxide solution was then added to adjust the pH to a desired pH. Germfree purified water was added, and the mixture was then heat-treated to produce soy sauce at the salt concentration, the alcohol concentration, and the pH shown in the following Table 17.
Licoricidin (produced by ChemFaces) was added to each of the obtained soy sauces to concentrations of 1 ppm, 5 ppm, 10 ppm, 25 ppm, and 50 ppm. Lactic acid bacteria (Lactobacillus rennini (DSM 20253)) were then added to 10^6 to 10^7 cells/mL and cultured at 30° C. for 7 days. After the culture, the number of lactic acid bacteria was measured using the GAM agar medium “Nissui”. Soy sauce to which licoricidin was not added was used as a control group, and the antimicrobial activity was evaluated in comparison with the number of lactic acid bacteria in the control group. The evaluation was performed using the same criterion as in Test Example 4.

[2] = system: Lactobacillus fructivores (NBRC 13954); assay: Antimicrobial action of oxygen-containing heterocyclic compounds in soy sauce (Test Example 7); assay type: cell-based; details: NBRC13954, 168 h, salt 4% (w/v), alcohol 5% (v/v)
Description: Commercially available whole soybean soy sauce (produced by Kikkoman Corporation) was electrodialyzed and then concentrated under reduced pressure to produce soy sauce at a salt concentration of 0% (w/v) and an alcohol concentration of 0% (v/v). Then, salt and/or alcohol was added to the above-mentioned obtained soy sauce, and the mixture was then heat-treated to produce soy sauce at a salt concentration of 4% (w/v) and an alcohol concentration of 5% (v/v).
The test substance described in Table 21 was added to the soy sauce produced in Test Example 6 to concentrations of 0.1 ppm, 0.5 ppm, 1 ppm, 5 ppm, 25 ppm, and 50 ppm. Lactic acid bacteria (Lactobacillus fructivores (NBRC 13954)) were then added to 10^4 to 10^5 cells/mL and cultured at 30° C. for 7 days. After the culture, the number of lactic acid bacteria was measured using Difco Lactobacilli MRS Agar. Soy sauce to which the test substance was not added was used as a control group, and the antimicrobial activity was evaluated in comparison with the number of lactic acid bacteria in the control group. The evaluation was performed using the following criterion.
• A: The bacterial count decreases to less than 10% of the bacterial count of a control group. • B: The bacterial count decreases to 10% or more and less than 50% of the bacterial count of the control group. • C: The bacterial count decreases to 50% or more and less than 100% of the bacterial count of the control group. • D: The bacterial count is the same as the bacterial count of the control group.

## COc1c(CC=C(C)C)c(O)cc2c1C[C@H](c1ccc(O)c(CC=C(C)C)c1O)CO2 [Licoricidin, 4-[(R)-7-hydroxy-5-methoxy-6-(3-methyl-2-butenyl)chroman-3-yl]-2-(3-methyl-2-butenyl)-1,3-benzenediol]
[1]; pH 4.2, alcohol 0% (v/v), licoricidin 25 ppm
  Antimicrobial activity: A (The bacterial count decreases to less than 10% of the bacterial count of the control group.)
[1]; pH 4.2, alcohol 0% (v/v), licoricidin 50 ppm
  Antimicrobial activity: A (The bacterial count decreases to less than 10% of the bacterial count of the control group.)
[1]; pH 4.2, alcohol 5% (v/v), licoricidin 1 ppm
  Antimicrobial activity: C (The bacterial count decreases to 50% or more and less than 100% of the bacterial count of control group.)
[1]; pH 4.2, alcohol 5% (v/v), licoricidin 5 ppm
  Antimicrobial activity: A (The bacterial count decreases to less than 10% of the bacterial count of the control group.)
[1]; pH 4.2, alcohol 5% (v/v), licoricidin 10 ppm
  Antimicrobial activity: A (The bacterial count decreases to less than 10% of the bacterial count of the control group.)
[1]; pH 4.2, alcohol 5% (v/v), licoricidin 25 ppm
  Antimicrobial activity: A (The bacterial count decreases to less than 10% of the bacterial count of the control group.)
[1]; pH 4.2, alcohol 5% (v/v), licoricidin 50 ppm
  Antimicrobial activity: A (The bacterial count decreases to less than 10% of the bacterial count of the control group.)
[1]; pH 4.6, alcohol 0% (v/v), licoricidin 1 ppm
  Antimicrobial activity: D
[1]; pH 4.6, alcohol 0% (v/v), licoricidin 5 ppm
  Antimicrobial activity: D
[1]; pH 4.6, alcohol 0% (v/v), licoricidin 10 ppm
  Antimicrobial activity: A (The bacterial count decreases to less than 10% of the bacterial count of the control group.)
[1]; pH 4.6, alcohol 0% (v/v), licoricidin 25 ppm
  Antimicrobial activity: A (The bacterial count decreases to less than 10% of the bacterial count of the control group.)
[1]; pH 4.6, alcohol 0% (v/v), licoricidin 50 ppm
  Antimicrobial activity: A (The bacterial count decreases to less than 10% of the bacterial count of the control group.)
[1]; pH 4.6, alcohol 5% (v/v), licoricidin 1 ppm
  Antimicrobial activity: B (The bacterial count decreases to 10% or more and less than 50% of the bacterial count of the control group.)
[1]; pH 4.6, alcohol 5% (v/v), licoricidin 5 ppm
  Antimicrobial activity: A (The bacterial count decreases to less than 10% of the bacterial count of the control group.)
[1]; pH 4.6, alcohol 5% (v/v), licoricidin 10 ppm
  Antimicrobial activity: A (The bacterial count decreases to less than 10% of the bacterial count of the control group.)
[1]; pH 4.6, alcohol 5% (v/v), licoricidin 25 ppm
  Antimicrobial activity: A (The bacterial count decreases to less than 10% of the bacterial count of the control group.)
[1]; pH 4.6, alcohol 5% (v/v), licoricidin 50 ppm
  Antimicrobial activity: A (The bacterial count decreases to less than 10% of the bacterial count of the control group.)
[1]; pH 5.0, alcohol 0% (v/v), licoricidin 1 ppm
  Antimicrobial activity: B (The bacterial count decreases to 10% or more and less than 50% of the bacterial count of the control group.)
[1]; pH 5.0, alcohol 0% (v/v), licoricidin 5 ppm
  Antimicrobial activity: A (The bacterial count decreases to less than 10% of the bacterial count of the control group.)
[1]; pH 5.0, alcohol 0% (v/v), licoricidin 10 ppm
  Antimicrobial activity: A (The bacterial count decreases to less than 10% of the bacterial count of the control group.)
[1]; pH 5.0, alcohol 0% (v/v), licoricidin 25 ppm
  Antimicrobial activity: A (The bacterial count decreases to less than 10% of the bacterial count of the control group.)
[1]; pH 5.0, alcohol 0% (v/v), licoricidin 50 ppm
  Antimicrobial activity: A (The bacterial count decreases to less than 10% of the bacterial count of the control group.)
[1]; pH 5.0, alcohol 5% (v/v), licoricidin 1 ppm
  Antimicrobial activity: C (The bacterial count decreases to 50% or more and less than 100% of the bacterial count of control group.)
[1]; pH 5.0, alcohol 5% (v/v), licoricidin 5 ppm
  Antimicrobial activity: A (The bacterial count decreases to less than 10% of the bacterial count of the control group.)
[1]; pH 5.0, alcohol 5% (v/v), licoricidin 10 ppm
  Antimicrobial activity: A (The bacterial count decreases to less than 10% of the bacterial count of the control group.)
[1]; pH 5.0, alcohol 5% (v/v), licoricidin 25 ppm
  Antimicrobial activity: A (The bacterial count decreases to less than 10% of the bacterial count of the control group.)
[1]; pH 5.0, alcohol 5% (v/v), licoricidin 50 ppm
  Antimicrobial activity: A (The bacterial count decreases to less than 10% of the bacterial count of the control group.)
[1]; pH 5.4, alcohol 0% (v/v), licoricidin 1 ppm
  Antimicrobial activity: B (The bacterial count decreases to 10% or more and less than 50% of the bacterial count of the control group.)
[1]; pH 5.4, alcohol 0% (v/v), licoricidin 5 ppm
  Antimicrobial activity: A (The bacterial count decreases to less than 10% of the bacterial count of the control group.)
[1]; pH 5.4, alcohol 0% (v/v), licoricidin 10 ppm
  Antimicrobial activity: A (The bacterial count decreases to less than 10% of the bacterial count of the control group.)
[1]; pH 5.4, alcohol 0% (v/v), licoricidin 25 ppm
  Antimicrobial activity: A (The bacterial count decreases to less than 10% of the bacterial count of the control group.)
[1]; pH 5.4, alcohol 0% (v/v), licoricidin 50 ppm
  Antimicrobial activity: A (The bacterial count decreases to less than 10% of the bacterial count of the control group.)
[1]; pH 5.4, alcohol 5% (v/v), licoricidin 1 ppm
  Antimicrobial activity: C (The bacterial count decreases to 50% or more and less than 100% of the bacterial count of control group.)
[1]; pH 5.4, alcohol 5% (v/v), licoricidin 5 ppm
  Antimicrobial activity: A (The bacterial count decreases to less than 10% of the bacterial count of the control group.)
[1]; pH 5.4, alcohol 5% (v/v), licoricidin 10 ppm
  Antimicrobial activity: A (The bacterial count decreases to less than 10% of the bacterial count of the control group.)
[1]; pH 5.4, alcohol 5% (v/v), licoricidin 25 ppm
  Antimicrobial activity: A (The bacterial count decreases to less than 10% of the bacterial count of the control group.)
[1]; pH 5.4, alcohol 5% (v/v), licoricidin 50 ppm
  Antimicrobial activity: A (The bacterial count decreases to less than 10% of the bacterial count of the control group.)
[1]; pH 5.8, alcohol 0% (v/v), licoricidin 1 ppm
  Antimicrobial activity: D
[1]; pH 5.8, alcohol 0% (v/v), licoricidin 5 ppm
  Antimicrobial activity: A (The bacterial count decreases to less than 10% of the bacterial count of the control group.)
[1]; pH 5.8, alcohol 0% (v/v), licoricidin 10 ppm
  Antimicrobial activity: A (The bacterial count decreases to less than 10% of the bacterial count of the control group.)
[1]; pH 5.8, alcohol 0% (v/v), licoricidin 25 ppm
  Antimicrobial activity: A (The bacterial count decreases to less than 10% of the bacterial count of the control group.)
[1]; pH 5.8, alcohol 0% (v/v), licoricidin 50 ppm
  Antimicrobial activity: A (The bacterial count decreases to less than 10% of the bacterial count of the control group.)
[1]; pH 5.8, alcohol 5% (v/v), licoricidin 1 ppm
  Antimicrobial activity: D
[1]; pH 5.8, alcohol 5% (v/v), licoricidin 5 ppm
  Antimicrobial activity: D
[1]; pH 5.8, alcohol 5% (v/v), licoricidin 10 ppm
  Antimicrobial activity: A (The bacterial count decreases to less than 10% of the bacterial count of the control group.)
[1]; pH 5.8, alcohol 5% (v/v), licoricidin 25 ppm
  Antimicrobial activity: A (The bacterial count decreases to less than 10% of the bacterial count of the control group.)
[1]; pH 5.8, alcohol 5% (v/v), licoricidin 50 ppm
  Antimicrobial activity: A (The bacterial count decreases to less than 10% of the bacterial count of the control group.)
[2]; test substance 0.1 ppm
  activity at 0.1 ppm: 10 to 50%
[2]; test substance 0.5 ppm
  activity at 0.5 ppm: 10 to 50%
[2]; test substance 1 ppm
  activity at 1 ppm: 10 to 50%
[2]; test substance 5 ppm
  activity at 5 ppm: 10 to 50%
[2]; test substance 25 ppm
  activity at 25 ppm: < 10%
[2]; test substance 50 ppm
  activity at 50 ppm: < 10%
